Article PMC7072517 (Biomolecules, 2020)
pKi: −log10 of the molar value. Blank lines part the entries; values can stand above or below the compound they belong to.

Tests used:
[1] = target: T1, soluble epoxide hydrolase (sEH) (Homo sapiens, UniProt P34913); details: cited from earlier work
T1 construct: purchased Cayman (Ann Arbor, MI, USA) 10011669
T1 sequence (P34913 1-555): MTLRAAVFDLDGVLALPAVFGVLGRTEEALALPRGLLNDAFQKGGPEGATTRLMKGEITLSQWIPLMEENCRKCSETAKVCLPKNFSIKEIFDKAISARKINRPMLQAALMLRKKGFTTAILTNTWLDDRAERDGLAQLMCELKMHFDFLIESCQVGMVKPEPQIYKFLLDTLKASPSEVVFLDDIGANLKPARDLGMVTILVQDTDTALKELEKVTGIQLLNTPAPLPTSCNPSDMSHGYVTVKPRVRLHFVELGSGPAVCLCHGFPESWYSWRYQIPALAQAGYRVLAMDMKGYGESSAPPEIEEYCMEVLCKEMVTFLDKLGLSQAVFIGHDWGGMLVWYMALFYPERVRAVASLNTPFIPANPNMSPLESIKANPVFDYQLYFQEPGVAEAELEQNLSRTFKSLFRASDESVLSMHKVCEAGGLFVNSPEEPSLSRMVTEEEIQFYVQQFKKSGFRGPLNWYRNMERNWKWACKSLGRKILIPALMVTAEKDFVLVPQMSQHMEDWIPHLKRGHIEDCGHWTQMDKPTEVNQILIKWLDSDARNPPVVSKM

[2] = set-up: method as in PMID 19794443; details: cited from earlier work
[3] = target: T1, soluble epoxide hydrolase (sEH); experiment: sEH enzyme kinetics (Lineweaver–Burk and Dixon plots); format: biochemical; details: for Binding Mode (inhibition type): Lineweaver–Burk plot, substrate 1–12.5 µM
Experimental: (§1) sEH (130 µL, ~16 ng/mL) in 25 mM bis-Tris-HCl buffer (pH 7.0) containing 0.1% BSA and 20 µL of compound in MeOH was mixed in a 96-well plate, followed by the addition of 50 µL buffer containing 5 µM PHOME. The reactions were carried out at 37°C for 40 min. The inhibitory ratio was calculated according to the following equations: Inhibitory activityrate (%) = [[…]] × 100(1) where ΔC andΔS represent the intensity of control and inhibitor after 40 min, respectively. y = y0 + [(a × x)/(b + x)](2) where y0 is the minimum value on the y-axis, a denotes the difference between maximum and minimum values, and b refers to the x value at 50%.
The inverse of these concentrations and v0 values were used for the Lineweaver–Burk plot. […] Furthermore, the Dixon plot is represented by the modified Lineweaver–Burk plot.

[4] = target: T1, soluble epoxide hydrolase (sEH); experiment: sEH inhibition assay (PHOME substrate, fluorescence); format: biochemical; details: 5 µM PHOME, 37°C, 40 min, pH 7.0; n = 3; read-out: IC50, inhibitory activity on sEH (converted)
Experimental: as §1, with “The” for “sEH (130 µL, ~16 ng/mL) in 25 mM bis-Tris-HCl buffer (pH 7.0) containing 0.1% BSA and 20 µL of compound in MeOH was mixed in a 96-well plate, followed by the addition of 50 µL buffer containing 5 µM PHOME. The”

SMILES: COc1cc(O)c2c(=O)c(OC)c(-c3ccc(O[C@@H]4O[C@H](CO)[C@@H](O)[C@H](O)[C@H]4O[C@@H]4OCC(O)(CO)[C@H]4O)c(OC)c3)oc2c1 (stereo partly drawn) [3,7,3′-tri-O-methylquercetin-4′-O-β-D-apiofuranosyl-(1→2)-O-β-D-glucopyranoside]
- inhibition type on sEH [1]: non-competitive

SMILES: O=c1c(O[C@@H]2O[C@H](CO)[C@H](O)[C@H](O)[C@H]2O)c(-c2ccc(O)c(O)c2)oc2cc(O)cc(O)c12 [quercetin-3-O-β-D-galactoside]
- inhibition type on sEH [1]: non-competitive

SMILES: O=c1c(O)c(-c2ccc(O)cc2)oc2cc(O)cc(O)c12 [kaempferol]
- inhibition type on sEH [1]: non-competitive

SMILES: O=c1cc(-c2ccc(O)cc2)oc2cc(O)cc(O)c12 [apigenin]
- inhibition type on sEH [1]: non-competitive

SMILES: O=C(O)CCCCCCCCCCCNC(=O)NC12CC3CC(CC(C3)C1)C2 [AUDA, 12-(3-adamantan-1-yl-ureido)dodecanoic acid]
- solubility [2]: low

- Binding Mode (inhibition type) [3]: Non-competitive type
SMILES: COc1cc(-c2cc(=O)c3c(O)cc(O)cc3o2)ccc1O [compound 1, chrysoeriol]

- IC50 [4]: 32.1 µM
- pKi ([3]; Dixon plot): 4.58
- Binding Mode (inhibition type) [3]: Non-competitive type
SMILES: O=c1cc(-c2ccc(O)c(O)c2)oc2cc(O[C@@H]3O[C@H](CO)[C@@H](O)[C@H](O)[C@H]3O)cc(O)c12 [compound 2, luteolin-7-O-glucopyranoside]
